This experiment deals with human Cat S (Homo sapiens (Human), UniProt P25774). Put plainly: Cathepsin enzyme inhibition assay (fluorogenic peptide substrate). The experiment is classed as biochemical. The conditions noted are these: read-out: CatS IC50. On the procedure:
Cathepsin Enzyme Inhibition Assay
Enzyme activity is measured by observing the increase in fluorescence intensity caused by cleavage of a peptide substrate containing a fluorophore whose emission is quenched in the intact peptide.
Assay buffer: 100 mM potassium phosphate pH 6.5, EDTA-Na 5 mM, Triton X-100 0.001%, DTT 5 mM.
Enzymes (all at 1 nM): human and mouse Cathepsin S, Cat K, Cat B, Cat L.
Substrate ([…], except for Cat K which uses Z-Leu-Arg-AMC (both from Bachem).
Excitation 360 nm, Emission 465 nm.
Enzyme is added to the substance dilutions in 96-well microtitre plates and the reaction is started with substrate. […] IC50 are calculated by standard methods.
Inhibition of human Cat S, mouse Cat S, human Cat K, mouse Cat K, human Cat B, mouse Cat B, human Cat L and mouse Cat L have been measured separately.

[1] abbreviates: human Cat S, enzyme 1 nM, substrate Z-Val-Val-Arg-AMC, pH 6.5.

IC50 data for 28 compounds are collected here from patent US10172843B2, “Piperidine derivatives” (Hoffmann-La Roche Inc., priority 2014, dated 2019).

Where two headings read alike, the source gives them in different places.

Sequence of human Cat S (P25774 115-331): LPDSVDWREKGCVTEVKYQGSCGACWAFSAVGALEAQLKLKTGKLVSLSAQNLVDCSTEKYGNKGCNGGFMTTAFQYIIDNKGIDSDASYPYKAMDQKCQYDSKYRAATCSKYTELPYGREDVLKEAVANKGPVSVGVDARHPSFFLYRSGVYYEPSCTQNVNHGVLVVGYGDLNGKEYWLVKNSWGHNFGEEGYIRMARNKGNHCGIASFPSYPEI

The term IC50 denotes the concentration that inhibits the measured activity by half. On to `CNC(=O)Cn1c(=O)n(C2CCN(Cc3nc(-c4ccc(C(F)(F)F)cc4)[nH]c3C)CC2)c2ccc(Cl)cc21` [Example 32, 2-(6-Chloro-3-{1-[5-methyl-2-(4-trifluoromethyl-phenyl)-1H-imidazol-4-ylmethyl]-piperidin-4-yl}-2-oxo-2,3-dihydro-benzoimidazol-1-yl)-N-methyl-acetamide], for which, under setting [1], the IC50 stood at 330 nM. On the same count and under the same terms, next, `Cc1[nH]c(-c2ccc(S(=O)(=O)Cc3ccccc3)cc2)nc1CN1CCC(N2Cc3ccccc3NC2=O)CC1` [Example 80, 3-{1-[5-Methyl-2-(4-phenylmethanesulfonyl-phenyl)-1H-imidazol-4-ylmethyl]-piperidin-4-yl}-3,4-dihydro-1H-quinazolin-2-one]: 99 nM; `Cc1nc(-c2ccc(C(F)(F)F)cc2)[nH]c1CN1CCC(N2CCCCC2=O)CC1` [Example 8, 1-[1-[[4-Methyl-2-[4-(trifluoromethyl)phenyl]-1H-imidazol-5-yl]methyl]-4-piperidyl]piperidin-2-one]: 3280 nM. For the compound `Cc1nn(-c2ccc(C(F)(F)F)cc2)cc1CN1CCC(N2Cc3ccccc3NC2=O)CC1` [Example 52, 3-{1-[3-Methyl-1-(4-trifluoromethyl-phenyl)-1H-pyrazol-4-ylmethyl]-piperidin-4-yl}-3,4-dihydro-1H-quinazolin-2-one], under setting [1], the IC50 turned out to be 1380 nM. For the compound `Cc1[nH]c(-c2ccc(C(F)(F)F)c(F)c2)nc1CN1CCC(N2Cc3ccccc3NC2=O)CC1` [Example 47, 3-{1-[2-(3-Fluoro-4-trifluoromethyl-phenyl)-5-methyl-1H-imidazol-4-ylmethyl]-piperidin-4-yl}-3,4-dihydro-1H-quinazolin-2-one], the IC50 under setting [1] is 145 nM. `Cc1[nH]c(-c2ccc(C(F)(F)F)c(Cl)c2)nc1CN1CCC(N2Cc3ccc(F)cc3NC2=O)CC1` [Example 45, 3-{1-[2-(3-Chloro-4-trifluoromethyl-phenyl)-5-methyl-1H-imidazol-4-ylmethyl]-piperidin-4-yl}-7-fluoro-3,4-dihydro-1H-quinazolin-2-one]: under setting [1], the IC50 is 110 nM. With `Cc1[nH]c(-c2ccc(S(=O)(=O)C(F)(F)F)cc2)nc1CN1CCC(N2Cc3ccccc3NC2=O)CC1` [Example 72, 3-{1-[5-Methyl-2-(4-trifluoromethanesulfonyl-phenyl)-1H-imidazol-4-ylmethyl]-piperidin-4-yl}-3,4-dihydro-1H-quinazolin-2-one], the IC50 under setting [1] worked out at 24 nM. With `Cc1[nH]c(-c2ccc(C(F)(F)F)cc2Cl)nc1CN1CCC(N2Cc3ccccc3NC2=O)CC1` [Example 59, 3-{1-[2-(2-Chloro-4-trifluoromethyl-phenyl)-5-methyl-1H-imidazol-4-ylmethyl]-piperidin-4-yl}-3,4-dihydro-1H-quinazolin-2-one], the IC50 under setting [1] was 285 nM.

Regarding `Cc1[nH]c(-c2ccc(C(F)(F)F)c(Cl)c2)nc1CN1CCC(N2Cc3ccccc3NC2=O)CC1` [Example 40, 3-{1-[2-(3-Chloro-4-trifluoromethyl-phenyl)-5-methyl-1H-imidazol-4-ylmethyl]-piperidin-4-yl}-3,4-dihydro-1H-quinazolin-2-one], the IC50 under setting [1] was determined as 77 nM.

As for “5-(4-Bromophenyl)-3-[1-[[2-[4-(trifluoromethyl)phenyl]-1H-imidazol-5-yl]methyl]-4-piperidyl]-1H-imidazol-2-one [Example 15]”, the IC50 under setting [1] amounted to 4560 nM. On to `Cc1[nH]c(-c2ccc(C(F)(F)F)cc2)nc1CN1CCC(n2c(=O)n(CC(=O)O)c3cc(Cl)ccc32)CC1` [Example 34, (6-Chloro-3-{1-[5-methyl-2-(4-trifluoromethyl-phenyl)-1H-imidazol-4-ylmethyl]-piperidin-4-yl}-2-oxo-2,3-dihydro-benzoimidazol-1-yl)-acetic acid], for which the IC50 under setting [1] was 930 nM. The same measure, in the same setting: next, `Cc1[nH]c(-c2ccc(S(=O)(=O)CC(C)C)cc2)nc1CN1CCC(n2c(=O)n(C)c3ccccc32)CC1` [Example 79, 1-Methyl-3-(1-{5-methyl-2-[4-(2-methyl-propane-1-sulfonyl)-phenyl]-1H-imidazol-4-ylmethyl}-piperidin-4-yl)-1,3-dihydro-benzoimidazol-2-one]: 2870 nM; `Cc1[nH]c(-c2ccc(C(F)(F)F)c(Cl)c2)nc1CN1CCC(c2c[nH]c3ncccc23)CC1` [Example 46, 3-{1-[2-(3-Chloro-4-trifluoromethyl-phenyl)-5-methyl-1H-imidazol-4-ylmethyl]-piperidin-4-yl}-1H-pyrrolo[2,3-b]pyridine]: 305 nM; `COC(=O)Cn1c(=O)n(C2CCN(Cc3nc(-c4ccc(C(F)(F)F)cc4)[nH]c3C)CC2)c2ccc(Cl)cc21` [Example 33, (6-Chloro-3-{1-[5-methyl-2-(4-trifluoromethyl-phenyl)-1H-imidazol-4-ylmethyl]-piperidin-4-yl}-2-oxo-2,3-dihydro-benzoimidazol-1-yl)-acetic acid methyl ester]: 130 nM. Still for that read-out and setting: next, `Cc1cn(-c2ccc(C(F)(F)F)cc2)nc1CN1CCC(N2Cc3ccccc3NC2=O)CC1` [Example 68, 3-{1-[4-Methyl-1-(4-trifluoromethyl-phenyl)-1H-pyrazol-3-ylmethyl]-piperidin-4-yl}-3,4-dihydro-1H-quinazolin-2-one]: 650 nM; `Cc1[nH]c(-c2ccc(C(F)(F)F)cc2Cl)nc1CN1CCC(n2c(=O)n(C)c3ccccc32)CC1` [Example 60, 1-{1-[2-(2-Chloro-4-trifluoromethyl-phenyl)-5-methyl-1H-imidazol-4-ylmethyl]-piperidin-4-yl}-3-methyl-1,3-dihydro-benzoimidazol-2-one]: 915 nM. The same measure, in the same setting: next, `Cc1[nH]c(-c2ccc(C(F)(F)F)cc2)nc1CN1CCC(n2c(=O)[nH]c3ccc(N4CCOCC4)cc32)CC1` [Example 10, 1-{1-[5-Methyl-2-(4-trifluoromethyl-phenyl)-1H-imidazol-4-ylmethyl]-piperidin-4-yl}-6-morpholin-4-yl-1,3-dihydro-benzoimidazol-2-one]: 280 nM. For `Cc1[nH]c(-c2ccc(C(F)(F)F)cc2)nc1CN1CCC(N2Cc3ccccc3NC2=O)CC1` [Example 28, 3-{1-[5-Methyl-2-(4-trifluoromethyl-phenyl)-1H-imidazol-4-ylmethyl]-piperidin-4-yl}-3,4-dihydro-1H-quinazolin-2-one], the IC50 under setting [1] was found to be 190 nM. For `Cc1[nH]c(-c2ccc(C(F)(F)F)cc2)nc1CN1CCC(N2C(=O)Cc3ccccc32)CC1` [Example 2, 1-{1-[5-Methyl-2-(4-trifluoromethyl-phenyl)-1H-imidazol-4-ylmethyl]-piperidin-4-yl}-1,3-dihydro-indol-2-one], the IC50 was found to be 780 nM.

Turning to `Cc1[nH]c(-c2ccc(Cl)c(Cl)c2)nc1CN1CCC(N2Cc3ccc(F)cc3NC2=O)CC1` [Example 48, 3-{1-[2-(3,4-Dichloro-phenyl)-5-methyl-1H-imidazol-4-ylmethyl]-piperidin-4-yl}-7-fluoro-3,4-dihydro-1H-quinazolin-2-one], the half-inhibitory concentration (IC50) under setting [1] came out at 450 nM. Still for that read-out and setting: next, `Cc1[nH]c(-c2ccc(S(=O)(=O)C(F)(F)F)cc2)nc1CN1CCC(n2c(=O)n(C)c3ccccc32)CC1` [Example 75, 1-Methyl-3-{1-[5-methyl-2-(4-trifluoromethanesulfonyl-phenyl)-1H-imidazol-4-ylmethyl]-piperidin-4-yl}-1,3-dihydro-benzoimidazol-2-one]: 60 nM; `Cc1[nH]c(-c2ccc(C(F)(F)F)cc2)nc1CN1CCC(n2c(=O)[nH]c3ccc(N4CCN(C)CC4)cc32)CC1` [Example 11, 6-(4-Methyl-piperazin-1-yl)-1-{1-[5-methyl-2-(4-trifluoromethyl-phenyl)-1H-imidazol-4-ylmethyl]-piperidin-4-yl}-1,3-dihydro-benzoimidazol-2-one]: 460 nM; `Cc1[nH]c(-c2ccc(Cl)c(Cl)c2)nc1CN1CCC(c2c[nH]c3ncccc23)CC1` [Example 49, 3-{1-[2-(3,4-Dichloro-phenyl)-5-methyl-1H-imidazol-4-ylmethyl]-piperidin-4-yl}-1H-pyrrolo[2,3-b]pyridine]: 1200 nM. The same measure, in the same setting: next, `Cc1[nH]c(-c2ccc(C(F)(F)F)cc2)nc1CN1CCC(n2cnc3ccccc32)CC1` [Example 3, 1-{1-[5-Methyl-2-(4-trifluoromethyl-phenyl)-1H-imidazol-4-ylmethyl]-piperidin-4-yl}-1H-benzoimidazole]: 450 nM; `COCCn1c(-c2ccc(C(F)(F)F)cc2)nc(CN2CCC(N3Cc4ccccc4NC3=O)CC2)c1C` [Example 76, 3-{1-[1-(2-Methoxy-ethyl)-5-methyl-2-(4-trifluoromethyl-phenyl)-1H-imidazol-4-ylmethyl]-piperidin-4-yl}-3,4-dihydro-1H-quinazolin-2-one]: 317 nM; `CCn1c(=O)n(C2CCN(Cc3nc(-c4ccc(C(F)(F)F)cc4)[nH]c3C)CC2)c2ccc(Cl)cc21` [Example 26, 5-Chloro-3-ethyl-1-{1-[5-methyl-2-(4-trifluoromethyl-phenyl)-1H-imidazol-4-ylmethyl]-piperidin-4-yl}-1,3-dihydro-benzoimidazol-2-one]: 150 nM. In the case of `Cc1[nH]c(-c2ccc(C(F)(F)F)cc2)nc1CN1CCC(c2c[nH]c3ccccc23)CC1` [Example 36, 3-{1-[5-Methyl-2-(4-trifluoromethyl-phenyl)-1H-imidazol-4-ylmethyl]-piperidin-4-yl}-1H-indole], the 50% inhibitory concentration (IC50) under setting [1] worked out at 770 nM. On the same count and under the same terms, next, `CCCc1[nH]c(-c2ccc(C(F)(F)F)cc2)nc1CN1CCC(n2c(=O)n(C)c3ccccc32)CC1` [Example 64, 1-Methyl-3-{1-[5-propyl-2-(4-trifluoromethyl-phenyl)-1H-imidazol-4-ylmethyl]-piperidin-4-yl}-1,3-dihydro-benzoimidazol-2-one]: 928 nM.
